{"source": "patent US20230077514A1", "about": "“METHODS FOR MODULATING CALORIE CONSUMPTION” (Duke University, priority 2020, published 2023)", "key": {"[1]": {"test_system": "cervical vagus nerve", "assay": "Whole nerve electrophysiology of the cervical vagus during duodenal sugar perfusion", "format": "in vivo, mice", "conditions": "wild-type mice; sucrose 300 mM, D-glucose 150 mM, fructose 150 mM, galactose 150 mM, maltodextrin 8%, α-MGP 150 mM, sucralose 15 mM, acesulfame K 15 mM, saccharin 15 mM", "method": "FIG. 1. […] Model: sugars are perfused into the duodenal lumen while nerve activity is recorded from the cervical vagus of anesthetized wild-type mice.\nThe proximal duodenum was perfused with sugars, thus bypassing any gustatory or gastric activation. Sugars were tested based on the following properties: both caloric content and sweet taste (sucrose [300 mM], D-glucose [150 mM], […], galactose [150 mM]), calorie-only (maltodextrin [8%], alpha-methylglucopyranoside (α-MGP) [150 mM]), or taste-only (sucralose [15 mM], acesulfame-K [15 mM], saccharin [15 mM]) (FIG. 1, FIG. 2, FIG. 3, FIG. 4)."}, "[2]": {"test_system": "vagal nodose neurons", "assay": "Cultured dissociated vagal neurons stimulated with sugars", "format": "cell-based", "conditions": "D-glucose 20 mM; for response of vagal nodose neurons cultured alone: sucralose 2 mM, maltodextrin 1%, n = 59 neurons", "method": "(§1) Dissociated vagal neurons were cultured to test whether the neurons are able to sense the different sugars. The neurons were stimulated with three consecutive sugars (D-glucose [20 mM], sucralose [2 mM], and maltodextrin [1%]) followed by KCI [50 mM] as an activity control. […] To determine how individual neuropod cells respond to taste and calorie properties, cultured Cck_tdTomato+ cells were stimulated with the same sugars, counterbalancing for order effect, and calcium activity was recorded using KCI [50 mM] as a final activity control. Of the 49 cells imaged, 18.4% responded to all types of sugar, 36.7% responded to only D-glucose, 20.4% to only maltodextrin, and 12.2% to only sucralose (n = 49 cells, n = 3 mice; FIG. 13). […] Cck_tdTomato+ cells were co-cultured with nodose neurons to determine whether neuropod cells were transducing different sugar stimuli onto the same vagal neurons. Patch-clamp electrophysiology, in voltage-clamp, was used to record neuron activity in response to neuropod cell exposure to D-glucose [20 mM] and sucralose [2 mM] in alternating order (FIG. 14). From the 18 pairs recorded, neuropod cells transduced the sugar stimuli and elicited excitatory post-synaptic currents in connected neurons in response to both stimuli in 6 pairs, to only D-glucose in 8 pairs, and to sucralose alone in 4 pairs (FIG. 14). Thus, neuropod cells are heterogenous in their response and transduction of caloric and non-caloric stimuli to vagal neurons."}, "[3]": {"test_system": "Cck_tdTomato+ cells", "assay": "Calcium activity of cultured Cck_tdTomato+ cells stimulated with sugars", "format": "cell-based, mice", "conditions": "D-glucose 20 mM, sucralose 2 mM, maltodextrin 1%; 49 cells", "method": "as §1, with “Thus, neuropod cells are heterogenous in their response and transduction of caloric and non-caloric stimuli to vagal neurons.” left out"}, "[4]": {"test_system": "nodose neurons co-cultured with Cck_tdTomato+ cells", "assay": "Patch-clamp electrophysiology of nodose neurons co-cultured with Cck_tdTomato+ cells", "format": "cell-based", "conditions": "D-glucose 20 mM, sucralose 2 mM; for peak excitatory post-synaptic currents, D-glucose vs sucralose: n = 18 pairs; for co-culture pairs responding to this stimulus only / co-culture pairs with excitatory post-synaptic currents in response to only this stimulus: of 18 pairs", "method": "as §1"}, "[5]": {"test_system": "enteroendocrine cells and nodose ganglia neurons", "conditions": "10 mM glucose; cited from earlier work"}, "[6]": {"test_system": "duodenal Cck cells", "assay": "Vagal recording with intraluminal 532 nm laser silencing of duodenal Cck (neuropod) cells", "format": "in vivo", "conditions": "Cck_Halo mice; sucrose 300 mM, α-mgp 150 mM, sucralose 15 mM", "method": "FIG. 9. Model: intraluminal 532 nm laser activates NpH3 chloride channels to silence duodenal Cck cells in CckCRE_NpH3 mice.\nUsing whole nerve electrophysiology of the cervical vagus nerve, it was confirmed that vagal activity increases in the presence of luminal sugars. Kaelberer et al., Science 361 (6408) (2018). The proximal duodenum was perfused with sugars, thus bypassing any gustatory or gastric activation. Sugars were tested based on the following properties: both caloric content and sweet taste (sucrose [300 mM], D-glucose [150 mM], fructose [150 mM], galactose [150 mM]), calorie-only (maltodextrin [8%], alpha-methylglucopyranoside (α-MGP) [150 mM]), or taste-only (sucralose [15 mM], acesulfame-K [15 mM], saccharin [15 mM]) (FIG. 1, FIG. 2, FIG. 3, FIG. 4). […] Intraluminal application of the 532 nm laser eliminated the vagal response to sucrose [300 mM], α-mgp [150 mM], and sucralose [15 mM] (n ≥ 5, p < 0.001) (FIG. 10 and FIG. 11; laser activation and wild-type controls). Thus, neuropod cells are required to sense both the calorie and taste properties of sugar and communicate these signals onto vagal neurons.\nCck neuropod cells in the duodenum express receptors for fatty acids (FIG. 69), analyzed by bulk sequencing Cck-positive and Cck-negative epithelial cells in the duodenum of CckGFP mice. Thus, CCK cells in the duodenum may signal the presence of fatty acids to the vagus nerve. To test this, the silencing optogenetic channel was expressed in Cck cells of mice. […] In the duodenum, there is overlap in cells expressing CCK and the vesicular glutamate transporter 1 (Vglut1), required for release of the neurotransmitter glutamate. To test whether glutamate is required as a signaling molecule for fat transduction to the vagus nerve, a cocktail of glutamate receptor inhibitors was perfused through the duodenum of wild type mice. Blockade of ionotropic and metabotropic glutamate receptors blocked vagal firing elicited by glutamate (FIG. 71). […] In an initial baseline test, mice freely explore an arena for 20 minutes, during which their position in the arena measured. […]"}, "[7]": {"test_system": "murine small intestinal organoids", "assay": "Glutamate release assay on murine small intestinal organoids", "format": "cell-based, mouse", "conditions": "sucrose 300 mM, α-MGP 150 mM, sucralose 15 mM; PBS control 2.632 ± 1.280", "method": "Slc5a1+ Cck-GFP cells express transcripts for the vesicular glutamate transporters Slc17a6, Slc17a7, Slc17a8 and the excitatory neurotransmitter transporters Slc1a1, Slc1a2, and Slc1a3 (FIG. 4). […] A glutamate release assay was performed on murine small intestinal organoids to determine if glutamate release was stimuli specific (FIG. 24-left). α-MGP was used for a caloric stimulus with no sweet taste, because it is not metabolized once it enters the cell and thus allowed for isolation of cell entry. After nutrient stimulation, the glutamate concentration in the supernatant was 2.632 ± 1.280 ng/µL for PBS control, 13.460 ± 1.724 ng/µL for sucrose [300 mM], 18.183 ± 7.904 ng/µL for α-MGP [150 mM], and 6.053 ± 1.169 ng/µL for sucralose [15 mM]."}}, "data": [{"smiles": "O=C[C@H](O)[C@@H](O)[C@H](O)[C@H](O)CO", "note": "[D-glucose]", "values": [{"measurement": "vagal response (firing) to intraduodenal sugar vs baseline", "setting": "[1]", "result": "responds significantly"}, {"measurement": "response of vagal nodose neurons cultured alone", "setting": "[2]", "result": "do not respond"}, {"measurement": "neurons with a (small) response", "setting": "[2]; 59 neurons", "result": "2 of 59"}, {"measurement": "cells responding to only this sugar", "setting": "[3]", "result": 36.7, "unit": "%"}, {"measurement": "peak excitatory post-synaptic currents, D-glucose vs sucralose", "setting": "[4]", "result": "not significantly different"}, {"measurement": "co-culture pairs responding to this stimulus only", "setting": "[4]", "result": 44.4, "unit": "%"}, {"measurement": "co-culture pairs with excitatory post-synaptic currents in response to only this stimulus", "setting": "[4]", "result": 8, "unit": "pairs"}, {"measurement": "activation of a nodose neuron by itself", "setting": "[5]", "result": "did not activate"}, {"measurement": "response of connected neuron to stimulus applied to the enteroendocrine cell", "setting": "[5]", "result": "induced excitatory post-synaptic potentials and action potential spikes"}]}, {"smiles": "OC[C@H]1O[C@H](O[C@]2(CCl)O[C@H](CCl)[C@@H](O)[C@@H]2O)[C@H](O)[C@@H](O)[C@H]1Cl", "note": "[sucralose]", "values": [{"measurement": "vagal response (firing) to intraduodenal sugar vs baseline", "setting": "[1]", "result": "responds significantly"}, {"measurement": "vagal response with Cck cells silenced by 532 nm laser", "setting": "[6]", "result": "eliminated"}, {"measurement": "response of vagal nodose neurons cultured alone", "setting": "[2]", "result": "do not respond"}, {"measurement": "cells responding to only this sugar", "setting": "[3]", "result": 12.2, "unit": "%"}, {"measurement": "peak excitatory post-synaptic currents, D-glucose vs sucralose", "setting": "[4]", "result": "not significantly different"}, {"measurement": "co-culture pairs responding to this stimulus only", "setting": "[4]", "result": 22.2, "unit": "%"}, {"measurement": "co-culture pairs with excitatory post-synaptic currents in response to only this stimulus", "setting": "[4]", "result": 4, "unit": "pairs"}, {"measurement": "glutamate concentration in the supernatant after stimulation", "setting": "[7]", "result": "6.053 ± 1.169", "unit": "ng/µL"}]}]}
